In PubChem BioAssay (NCI):
Values joined by “and” are separate entries in the source; they are usually repeats but may differ in a detail not shown here. Identical values can stand only once.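 Method: 48-hour compound exposure of cells in 96-well plates, five concentrations, linear interpolation of endpoints. The concentration for 50% growth inhibition is given as GI50. The concentration for full growth arrest is given as TGI.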

Tests used:
Assay in all cases: NCI-60 cell line screen, 48 h
CAKI-1 renal = test system: CAKI-1 renal
COLO 205 colon = test system: COLO 205 colon
EKVX NSCLC = test system: EKVX NSCLC
HCT-15 colon = test system: HCT-15 colon
K-562 leukemia = test system: K-562 leukemia
LOX IMVI melanoma = test system: LOX IMVI melanoma
MOLT-4 leukemia = test system: MOLT-4 leukemia
SK-MEL-5 melanoma = test system: SK-MEL-5 melanoma
SK-OV-3 ovarian = test system: SK-OV-3 ovarian
CCRF-CEM leukemia = test system: CCRF-CEM leukemia

Compound	TGI (CAKI-1 renal) [µM]	TGI (COLO 205 colon) [µM]	TGI (EKVX NSCLC) [µM]	TGI (HCT-15 colon) [µM]	TGI (K-562 leukemia) [µM]	TGI (LOX IMVI melanoma) [µM]	TGI (MOLT-4 leukemia) [µM]	TGI (SK-MEL-5 melanoma) [µM]	TGI (SK-OV-3 ovarian) [µM]	TGI (CCRF-CEM leukemia) [µM]	GI50 (CAKI-1 renal) [µM]	GI50 (CCRF-CEM leukemia) [µM]	GI50 (COLO 205 colon) [µM]	GI50 (EKVX NSCLC) [µM]	GI50 (HCT-15 colon) [µM]	GI50 (K-562 leukemia) [µM]	GI50 (LOX IMVI melanoma) [µM]	GI50 (MOLT-4 leukemia)	GI50 (SK-MEL-5 melanoma) [µM]	GI50 (SK-OV-3 ovarian) [µM]
Cc1ccccc1NC(=O)c1cc(-c2ccc([N+](=O)[O-])cc2)nc(=S)[nH]1	> 100	> 100	> 100	> 100	> 100	> 100	> 100	> 100	> 100											
Cc1[nH]nc(C(F)(F)F)c1N=NN(C)C	3.56	10.7	11.5	24.4	11.9	> 100	5.02	> 100	25	16										
CCOC(=O)c1cc2cc3c4c(c2oc1=O)CCCN4CCC3	> 100	57.1	80	> 100	> 100	62.7	62.9	26.8		> 100										
CC(=O)Oc1ccc(C23c4ccccc4C2(OC(C)=O)c2cc(OC(C)=O)ccc23)cc1 (centres undefined)	17.2	29.1	16.6	17.7	> 100	12.8	72.2	20.3	47.6	12.4	4.08	3.05	14.5	3.52	3.81	4.04	3.48	7.27 µM	6.19	20.5
O=C(O)c1ccc(CI)cc1	27.6	32.4	36.4	39.8	74.6		40.7	31.3	55	26.9										
O=S(=O)(NC1=NCCN1C(=S)SN1CCn2c1nsc2=S)c1cccc2ccccc12	69.7	> 100	> 100	> 100	44.6	55	60.3	54.4	91.5	> 100	22.8	2.5	26.8	25.8	26.3	16.1	20.4	16.5 µM	19.1	31.1
CCCCCCCCOC(=O)CC[C@@H](C)[C@H]1CC[C@H]2[C@@H]3[C@H](OC(=O)CCN)C[C@@H]4C[C@H](OC(=O)CCN)CC[C@]4(C)[C@H]3C[C@H](OC(=O)CCN)[C@]12C	34.6	20.6		38.9		4.51		51.7	27		18		4.74		16.4		2.23		19.4	10.5
CCC[CH2][Sn]([Cl])([Cl])[CH2]CCC	1.44	3.2	2.25	2.24	1.24	1.84	2.53	1.55	3.08	0.781	0.295	0.221	1.15	0.848	0.738	0.233	0.464	0.356 µM	0.509	1.67
O=S(=O)(NCCNc1nccc(-c2c(-c3ccc(F)c(O)c3)nc3sccn23)n1)c1ccc(F)cc1	31.6	36.1	60.6	52.6	> 100	18	12.9	2.98	75.7		4.02		5.62	5.42	3.25	2.55	0.675	2.71 µM	1.52	4.28
O=C(O)c1ccc(NCn2nc(-c3ccccc3O)oc2=S)cc1	> 100	> 100	> 100	57.5	> 100	38.3	26.8	> 100		> 100	> 100	7.38	48.8	> 100	24.9	40.7	19.9	4.69 µM	> 100	
C=CCn1c(C)nc2ccc(Nc3nc(Nc4ccc(F)cc4)nc4ccccc34)cc21	27.5			10.4	11.9	23	6.27	2.64		11.7	6.86	3.01			2.84	3.13	4.36	1.77 µM	1.36	
COC12CCC(=O)C=C1c1ccccc1N2C(C)=O (centres undefined)	> 100	> 100	> 100	> 100	> 100		> 100		> 100	> 100										
COC(=O)C1C(O)CCC2CN3CCc4c([nH]c5ccccc45)C3CC21 (centres undefined)	> 100	> 100	> 100	> 100	> 100	> 100	> 100	> 100	> 100		> 100							> 100 µM and 14.4 µM		
CC1=C(C(=O)CC(=O)C(=O)Nc2cc(C)ccc2C)Sc2ccccc2N1	> 100		> 100	> 100	> 100	> 100	> 100	> 100	> 100	> 100										
OCc1ccc(N2CCc3cccc(F)c3C2)cc1Cl	21.8	0.175		36.3	16.5	> 63.2	71	35.4	14.6	99.1	1.19	24.9	0.0197		10.4	< 0.0206	23.5	23 µM	14.9	1.89
O=c1c2cc(F)ccc2sc2c(N3CCNCC3)nc3ccc(F)cc3c12	2.92	4.72	3.04	2.84		3.16		3.11		5.24	1.57	2.06	2.15	1.62	1.44		1.62		1.73	
